Experimental data as given in PMC10380083, “Synthesis of Prostate-Specific Membrane Antigen-Targeted Bimodal Conjugates of Cytotoxic Agents and Antiandrogens and Their Comparative Assessment with Monoconjugates” (International Journal of Molecular Sciences, 2023).
Like-named read-outs stand apart in the source and are kept apart here. Where a SMILES comes first, the peptide text is derived from it. [ ]: non-standard residue; d: D form. The star is where a group is joined. Dolaproine = CO[C@@H]([C@@H]1CCCN1)[C@@H](C)C(=O)O; Dil = CC[C@H](C)[C@H](NC)[C@@H](CC(=O)O)OC; X1 = C[C@@H](N*)[C@@H](O)c1ccccc1; NMeV = CN[C@H](C(=O)O)C(C)C

How the values were obtained:
[1] = test system: 22Rv1 human prostate carcinoma xenograft; conditions: 22Rv1 xenograft; for tumor volume V±m: i.v. triple injection, single dose 132.3 nM/kg; for Tumor growth inhibition: i.v. 132.3 nM/kg three times
Description: (§1) We carried out in vivo studies of the efficacy of the obtained bimodal conjugates. […] Also, conjugate I (Figure 5) was used as a reference compound. An isotonic (0.9%) sodium chloride solution was used as a negative control. Studies were carried out in xenograft models of 22Rv1 human prostate carcinoma and PC-3 prostate adenocarcinoma in immunodeficient Balb/c nude mice (male).
(§2) Two cell lines were used: human prostate carcinoma 22Rv1 and prostate adenocarcinoma PC-3 (ATCC collection). Cells were cultured in 75 cm^2 vials (Costar, Washington, DC, USA) in RPMI-1640 medium (PanEco, Russia) with the addition of 2 mM L-glutamine (PanEco, Russia) and 10% fetal calf serum (HyClone, Logan, UT, USA) under standard conditions of cultivation (in a humidified atmosphere at 37 °C and 5% CO2). Cells of 6–10 passages were used to inoculate the animals. Cell suspension was prepared with a concentration of 5 × 10^6 cells in 0.05 mL of the 22Rv1 medium and in 0.1 mL of the PC-3 medium. 22Rv1 cells were inoculated into animals in Matrigel (BD Matrigel Basement Membrane Matrix, BD Biosciences, San Jose, CA, USA). Manipulations with Matrigel were performed on a refrigerated plate using precooled materials, tubes and instrumentation. For animal administration, 50 μL of the cell suspension (5 × 10^6 cells) was transferred to a chilled tube containing 50 μL of Matrigel; after mixing, the cellular material (final volume of 100 μL) was injected subcutaneously into the groin area of the animal. To obtain subcutaneous xenograft PC-3, a 5 × 10^6 suspension of tumor cells was inoculated subcutaneously into the inguinal cavity of male mice in a volume of 0.1 mL.
(§3) To study the antitumor efficacy, conjugates were administered intravenously at a dose of 132.3 nM/kg to tumor-bearing mice three times at five-day intervals; administration was started 7−8 days after cell inoculation, and the tumor size was 70−90 mm^3. As a control substance, 0.9% sodium chloride solution was used. Experimental groups included five animals each. […] The mixture was dissolved in DMSO (5% of final solution) and diluted with hemodesum (30% low-molecular-weight polyvinylpyrrolidone (Mw = 8000 ± 200) saline infusion solution). The presence of tumors and their sizes, as well as the body weights of the mice, were recorded every five days during the observation of the animals. The antitumor effect was assessed by comparing the tumor volumes in the experimental and control groups as well as the amount of tumor growth inhibition (TGI, %).
(§4) Tumor volume was calculated using Formula (1):V = d1 × d2 × d3 × 0.52(1) where d1, d2 and d3 are the three mutually perpendicular dimensions of the tumor. […]
(§5) 3.2.1. In vivo evaluation of antitumor efficacy […]
(§6) intravenously at a dose of 132.3 nM/kg to tumor-bearing mice three times at 5-day intervals, the administration was started 7-8 days after cell inoculation to animals, tumor size was 70-90 mm3.
(§7) A 0.9% sodium chloride solution was used as a control substance. The experimental groups […]
(§8) The presence of tumor masses and their size, as well as the body weight of the mice, were recorded every 5 days during observation. In accordance with humane principles, animals were euthanized by placing the mice in a CO2 inhalation chamber (ZOONLAB GmbH, Germany).

[2] = test system: PC-3 prostate adenocarcinoma xenograft; conditions: PC-3 xenograft; for tumor volume V±m: i.v. triple injection, single dose 132.3 nM/kg; for Tumor growth inhibition: i.v. 132.3 nM/kg three times
Description: as §1, §2, §3, §4, §5, §6, §7, §8

[3] = Body weight, general condition and mortality in the antitumor efficacy study; conditions: i.v. 132.3 nM/kg x3
Description: Animal body weight data are presented in Table S2 in the electronic supplementary materials.
as §3, with “%). […]” for “%).”
as §5, §6, §7, §8
Conjugate Method of injection Dose Number of animals 22Rv1 PC-3 […]
3.4. In vivo Efficacy Evaluation
Days after tumor implantation / mass± error, g
Conjugate 7 day 12 day 17 day […]
injection) injection) injection)
Human prostate carcinoma 22Rv1
Human prostate adenocarcinoma PC-3
Table S3. Tumor growth dynamics of 22Rv1 and PC-3 in mice with intravenous triple injection of […]
ate Days after tumor implantation / V±m, mm3

[4] = 7 day after tumor implantation (1st injection)
[5] = 12 day after tumor implantation (2nd injection)
[6] = 17 day after tumor implantation (3rd injection)
[7] = 22 day after tumor implantation
[8] = 27 day after tumor implantation
[9] = 33 day after tumor implantation
[10] = 37 day after tumor implantation
[11] = days after the start of treatment: 1
[12] = days after the start of treatment: 5
[13] = days after the start of treatment: 10
[14] = days after the start of treatment: 16
[15] = days after the start of treatment: 20

Compound: CC[C@H](C)[C@@H]([C@@H](CC(=O)N1CCC[C@H]1[C@H](OC)[C@@H](C)C(=O)N[C@H](C)[C@@H](O)c1ccccc1)OC)N(C)C(=O)[C@@H](NC(=O)[C@@H](NC)C(C)C)C(C)C [MMAE, Monomethyl Auristatin E, reference compound] (H-[NMeV]V[Dil][Dolaproine]-X1)
- tumor volume V±m [1, 4]: 73.7±14.3 mm3
- tumor volume V±m [1, 5]: 93.6±5.7 mm3
- tumor volume V±m [1, 6]: 125.3 mm3
- tumor volume V±m [1, 7]: 211.7 mm3
- tumor volume V±m [1, 8]: 388.2 mm3
- tumor volume V±m [1, 9]: 749.3 mm3
- tumor volume V±m [1, 10]: 1402.3 mm3
- Tumor growth inhibition [1, 11]: 41.5%
- Tumor growth inhibition [1, 12]: 60.1%
- Tumor growth inhibition [1, 13]: 64.7%
- Tumor growth inhibition [1, 14]: 63.0%
- Tumor growth inhibition [1, 15]: 51.0%
- tumor volume V±m [2, 4]: 85.9±8.7 mm3
- tumor volume V±m [2, 5]: 117.9 mm3
- tumor volume V±m [2, 6]: 211.3 mm3
- tumor volume V±m [2, 7]: 330.9 mm3
- tumor volume V±m [2, 8]: 592.6 mm3
- tumor volume V±m [2, 9]: 1014.3 mm3
- tumor volume V±m [2, 10]: 1679.9 mm3
- Tumor growth inhibition [2, 11]: 29.8%
- Tumor growth inhibition [2, 12]: 32.1%
- Tumor growth inhibition [2, 13]: 29.5%
- Tumor growth inhibition [2, 14]: 25.4%
- Tumor growth inhibition [2, 15]: 38.4%
- TGI, did not exceed ([2]; i.v. 132.3 nM/kg three times at five-day intervals, male Balb/c nude mice): ≤ 38.4%
- body weight, mass ± error ([3]; 22Rv1 xenograft mice, 7 day after tumor implantation (1st injection)): 24.0 ± 1.3 g
- body weight, mass ± error ([3]; 22Rv1 xenograft mice, 12 day after tumor implantation (2nd injection)): 23.7 ± 1.3 g
- body weight, mass ± error ([3]; 22Rv1 xenograft mice, 17 day after tumor implantation (3rd injection)): 23.4 ± 1.3 g
- body weight, mass ± error ([3]; 22Rv1 xenograft mice, 22 day after tumor implantation): 23.5 ± 1.3 g
- body weight, mass ± error ([3]; 22Rv1 xenograft mice, 27 day after tumor implantation): 23.8 ± 1.3 g
- body weight, mass ± error ([3]; 22Rv1 xenograft mice, 33 day after tumor implantation): 24.0 ± 1.3 g
- body weight, mass ± error ([3]; 22Rv1 xenograft mice, 37 day after tumor implantation): 24.2 ± 1.4 g
- body weight, mass ± error ([3]; PC-3 xenograft mice, 7 day after tumor implantation (1st injection)): 22.4 ± 1.2 g
- body weight, mass ± error ([3]; PC-3 xenograft mice, 12 day after tumor implantation (2nd injection)): 22.7 ± 1.5 g
- body weight, mass ± error ([3]; PC-3 xenograft mice, 17 day after tumor implantation (3rd injection)): 22.4 ± 1.4 g
- body weight, mass ± error ([3]; PC-3 xenograft mice, 22 day after tumor implantation): 23.0 ± 1.4 g
- body weight, mass ± error ([3]; PC-3 xenograft mice, 27 day after tumor implantation): 23.1 ± 1.3 g
- body weight, mass ± error ([3]; PC-3 xenograft mice, 33 day after tumor implantation): 23.2 ± 1.2 g
- body weight, mass ± error ([3]; PC-3 xenograft mice, 37 day after tumor implantation): 23.3 ± 1.2 g
